Values joined by “and” are separate entries in the source; they are usually repeats but may differ in a detail not shown here. Identical values can stand only once.
System: 636577-100-R-J1-PDC complex spheroid viability
Experiment: Anticancer human tumor 636577-100-R-J1-PDC patient-derived endometrial adenocarcinoma cell line growth inhibition [GQUAD]
Settings: for viability, T/C: stronger effect = lower value
Excerpt: DNA G-quadruplex Stabilizer Agents in Combinations in Complex Spheroids
A high-throughput screen of multi-cell type tumor spheroids was designed to identify active combinations of DNA G-quadruplex stabilizer agents and targeted small molecules. Complex spheroids include a stromal component modeled by human endothelial cells (HUVEC) and fibroblasts modeled by human mesenchymal stem cells (MSCs). The concentration ranges selected for each drug and investigational agent were based upon clinically achievable concentrations if the clinical Cmax of the agent was known.
Compounds. The drugs and investigational agents: pidnarulex (CX-5461; NSC782164), APTO-253 (NSC789042), BRACO-19 (NSC847499), peposertib (NSC802822), ceralasertib (NSC780249), elimusertib (NSC800525), camonsertib (NSC841442), AZD-1390 (NSC803789), olaparib (NSC753686), talazoparib (NSC767125), ART-558 (NSC835418), sotorasib (NSC818433), MRTX-1133 (NSC836407), SN-38 (NSC673596), topotecan (NSC609699), etoposide (NSC141540), doxorubicin (NSC123127), gemcitabine (NSC613327), 5-fluorouracil (NSC19893), paclitaxel (NSC125973), vemurafenib (NSC761431), panobinostat (NSC761190), R-306465 (JNJ-16241199; NSC773264), adavosertib (NSC754352), TP-3654 (NSC805149), carboplatin (NSC241240), KSQ-4279 (NSC840948), and staurosporine (NSC755774) were obtained from the National Cancer Institute (NCI) Developmental Therapeutics Program Chemical Repository (34). The FDA-approved anticancer drug set is available from the NCI Developmental Therapeutics Program. […] The stock solutions were prepared in dimethyl sulfoxide (DMSO, Sigma-Aldrich, St. Louis, MO, cat. D2650) at 800-fold the tested concentration and stored at -70 degrees C prior to their use. All drugs and investigational agents were tested over a range starting from a high concentration at or near the clinical Cmax and decreasing in half-log increments. If the clinical Cmax for an agent had not been determined, the highest concentration tested was 10 microM.
2.3 Cell Culture. All cells were maintained in an incubator at 37 degrees C and 5% CO2 with 95% humidity. The PDC lines were cultured according to standard operating procedures established by the NCI PDMR. All PDCs were thawed and cultured in Matrigel-coated flasks prepared with a working solution of 1X Ham's F-12 nutrient mix, without supplementation (Invitrogen, cat. 11765054), 100 U/mL penicillin-streptomycin (Invitrogen, cat. 15140122), and 2.5% Matrigel (Corning Inc., cat. 354248) for the first three passages. The 857933-349-R-J2-PDC line was cultured in 6C/Colon 1B media, which includes advanced DMEM/F-12 (Thermo Fisher Scientific, cat. 12634028), 10 mM HEPES (Thermo Fisher Scientific, cat. 15630080), 1X GlutaMAX supplement (Thermo Fisher Scientific, cat. 35050061), 0.1 mg/mL primocin (InvivoGen, cat. ant-pm-2), 10% defined fetal bovine serum, heat inactivated (HyClone Laboratories Inc., cat. SH30070.03HI), 50% L-WRN conditioned media (ATCC, cat. CRL-3276), 1.25 mM N-Acetyl-L-cysteine (Sigma-Aldrich, cat. A9165), 10 mM nicotinamide (Sigma-Aldrich, cat. N0636), 1X B-27 supplement (Thermo Fisher Scientific, cat. 17504044), 1X N-2 supplement (Thermo Fisher Scientific, cat. 17502048), 10 microM Y-27632 dihydrochloride (Tocris Bioscience, cat. 1254), and 50 ng/mL human EGF recombinant protein (Thermo Fisher Scientific, cat. PHG0311). The 485176-168-R4-J1-PDC line was cultured in Panc media, which includes all 6C/Colon 1B media components plus 100 ng/mL human FGF-10 (Thermo Fisher Scientific, cat. 100-26), 500 nM SB-431542 (Selleckchem, cat. S1067), and gastrin (Tocris, cat. 3006).
[…]
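Note: viability read after seven days of drug exposure.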
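Throughout, for viability, T/C: luminescence signal used as a proxy for viable cells; 100% = DMSO vehicle control wells.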

For `CCCS(=O)(=O)Nc1ccc(F)c(C(=O)c2c[nH]c3ncc(-c4ccc(Cl)cc4)cc23)c1F`, the viability, T/C (compound 0.0316 µM) was 98.3% and 98.1% and 104%, the viability, T/C (compound 0.1 µM) was 89.9% and 103% and 86.1% and the viability, T/C (compound 0.316 µM) was 109% and 84.8% and 76.3%. For the same molecule, the viability, T/C (compound 1 µM) was 75% and 74.6% and 46.8%, the viability, T/C (compound 3.16 µM) was 71.8% and 76.7% and 53.5% and the viability, T/C (compound 10 µM) was 46.6% and 34.8% and 20.9%. The IC50 (curve of compound) was 8650 nM and 6140 nM and 1700 nM.

`CC[C@@]1(O)C(=O)OCc2c1cc1n(c2=O)Cc2cc3c(CN(C)C)c(O)ccc3nc2-1` gave a viability, T/C (compound 0.000999 µM) of 85.3%, a viability, T/C (compound 0.00316 µM) of 80.8% and a viability, T/C (compound 0.00999 µM) of 82.9%. It also gave a viability, T/C (compound 0.0316 µM) of 40.3%, a viability, T/C (compound 0.0999 µM) of 19.1% and a viability, T/C (compound 0.316 µM) of 22%. For the same molecule, the IC50 (curve of compound) was 24.3 nM.

In the case of `CN(C)c1ccc(Nc2c3ccc(NC(=O)CCN4CCCC4)cc3nc3cc(NC(=O)CCN4CCCC4)ccc23)cc1`, the viability, T/C (compound 0.0316 µM) is reported as 104% [middle of 12 runs], the viability, T/C (compound 1 µM) is reported as 82.9% [middle of 12 runs] and the viability, T/C (compound 3.16 µM) is reported as 40.7% [middle of 12 runs]. The viability, T/C (compound 10 µM) was 6.05% [middle of 12 runs] and the IC50 (compound alone, run of 03/26/2024) was 2.41 µM [middle of 11 runs].

For `COc1cccc2c1C(=O)c1c(O)c3c(c(O)c1C2=O)CC(O)(C(=O)CO)CC3OC1CC(N)C(O)C(C)O1` (stereo not given), the viability, T/C (compound 0.0316 µM) was 28.9% and 27% and 34.2%, the viability, T/C (compound 0.1 µM) was 18.4% and 18.1% and 16.8% and the viability, T/C (compound 0.316 µM) was 15.4% and 13.9% and 14.7%. For the same molecule, the viability, T/C (compound 1 µM) was 7.51% and 9.99% and 11.6%, the viability, T/C (compound 3.16 µM) was 0.17% and 0.21% and 0.44% and the viability, T/C (compound 10 µM) was 0.53% and 0.32% and 0.4%. The IC50 (curve of compound) was less than 31.6 nM.

For `C=CCn1c(=O)c2cnc(Nc3ccc(N4CCN(C)CC4)cc3)nc2n1-c1cccc(C(C)(C)O)n1`, the viability, T/C (compound 0.0316 µM) was 85% and 95.4% and 95.7%, the viability, T/C (compound 0.1 µM) was 83.5% and 87.5% and 102% and the viability, T/C (compound 0.316 µM) was 82.6% and 74.1% and 110%. For the same molecule, the viability, T/C (compound 1 µM) was 39.1% and 30.6% and 46.6%, the viability, T/C (compound 3.16 µM) was 16.7% and 15% and 16.4% and the viability, T/C (compound 10 µM) was 11.8% and 9.58% and 9.6%. The IC50 (curve of compound) was 749 nM and 598 nM and 932 nM.

For `Cc1cccc(N(C)C(=O)C2C(O)CCN2c2nc(C)cc(C(F)(F)F)c2C#N)c1` (stereo not given) + CN(C)c1ccc(Nc2c3ccc(NC(=O)CCN4CCCC4)cc3nc3cc(NC(=O)CCN4CCCC4)ccc23)cc1, the IC50 (curve of first compound, second compound 0.0316 µM) was greater than 10000 nM, the IC50 (curve of first compound, second compound 0.1 µM) was greater than 10000 nM and the IC50 (curve of first compound, second compound 0.316 µM) was greater than 10000 nM. For the same molecule, the IC50 (curve of first compound, second compound 1 µM) was greater than 10000 nM, the IC50 (curve of first compound, second compound 3.16 µM) was less than 31.6 nM and the IC50 (curve of first compound, second compound 10 µM) was less than 31.6 nM. The viability, T/C (second compound 0.0316 µM, first compound 0.0316 µM) was 78%, the viability, T/C (second compound 0.0316 µM, first compound 0.1 µM) was 78.9% and the viability, T/C (second compound 0.0316 µM, first compound 0.316 µM) was 97.2%. It also gave a viability, T/C (second compound 0.0316 µM, first compound 1 µM) of 102%, a viability, T/C (second compound 0.0316 µM, first compound 3.16 µM) of 92.1% and a viability, T/C (second compound 0.0316 µM, first compound 10 µM) of 86%. The viability, T/C (second compound 0.1 µM, first compound 0.0316 µM) was 105%, the viability, T/C (second compound 0.1 µM, first compound 0.1 µM) was 73.6% and the viability, T/C (second compound 0.1 µM, first compound 0.316 µM) was 89.7%. For the same molecule, the viability, T/C (second compound 0.1 µM, first compound 1 µM) was 92.8%, the viability, T/C (second compound 0.1 µM, first compound 3.16 µM) was 92.8% and the viability, T/C (second compound 0.1 µM, first compound 10 µM) was 82.9%. It also gave a viability, T/C (second compound 0.316 µM, first compound 0.0316 µM) of 80.6%, a viability, T/C (second compound 0.316 µM, first compound 0.1 µM) of 79.7% and a viability, T/C (second compound 0.316 µM, first compound 0.316 µM) of 91.3%. It also gave a viability, T/C (second compound 0.316 µM, first compound 1 µM) of 88.5%, a viability, T/C (second compound 0.316 µM, first compound 3.16 µM) of 96.9% and a viability, T/C (second compound 0.316 µM, first compound 10 µM) of 78.3%. For the same molecule, the viability, T/C (second compound 1 µM, first compound 0.0316 µM) was 78.1%, the viability, T/C (second compound 1 µM, first compound 0.1 µM) was 87.2% and the viability, T/C (second compound 1 µM, first compound 0.316 µM) was 78.6%. The viability, T/C (second compound 1 µM, first compound 1 µM) was 71.5%, the viability, T/C (second compound 1 µM, first compound 3.16 µM) was 76.4% and the viability, T/C (second compound 1 µM, first compound 10 µM) was 57.4%. For the same molecule, the viability, T/C (second compound 3.16 µM, first compound 0.0316 µM) was 34.9%, the viability, T/C (second compound 3.16 µM, first compound 0.1 µM) was 47.4% and the viability, T/C (second compound 3.16 µM, first compound 0.316 µM) was 45.8%. The viability, T/C (second compound 3.16 µM, first compound 1 µM) was 31.6%, the viability, T/C (second compound 3.16 µM, first compound 3.16 µM) was 30.1% and the viability, T/C (second compound 3.16 µM, first compound 10 µM) was 27.2%. The viability, T/C (second compound 10 µM, first compound 0.0316 µM) was 7.75%, the viability, T/C (second compound 10 µM, first compound 0.1 µM) was 6.99% and the viability, T/C (second compound 10 µM, first compound 0.316 µM) was 4.7%. The viability, T/C (second compound 10 µM, first compound 1 µM) was 4.67%, the viability, T/C (second compound 10 µM, first compound 3.16 µM) was 2.93% and the viability, T/C (second compound 10 µM, first compound 10 µM) was 0.73%.

Reference: PubChem BioAssay AID2060504 (Molecular Pharmacology Branch, DTP, NCI, 2025)
